Patent publication US6030643A, “Potassium, sodium and tris oxaprozin salt pharmaceutical formulations” (priority 1997, dated 2000)
Where a name gives a salt, the structure may show the parent alone. Read-outs that look alike come from different tables or passages of the source.

What was measured:
[1] = Solubility of oxaprozin and its salts; format: physicochemical
[2] = Light sensitivity; format: physicochemical

SMILES	solubility [1]	solubility ([1]; read-out: Solubility)	Photosensitivity [2]
O=C(O)CCc1nc(-c2ccccc2)c(-c2ccccc2)o1 [TRIS salt of oxaprozin, 4,5-diphenyl-2-oxazolepropanoic acid, tris(hydroxymethyl)aminomethanesalt]	380 mg/mL		
O=C(O)CCc1nc(-c2ccccc2)c(-c2ccccc2)o1 [oxaprozin, 4,5-diphenyl-2-oxazolepropionic acid]	1.7 mg/mL		
O=C([O-])CCc1nc(-c2ccccc2)c(-c2ccccc2)o1.[K+] [potassium salt of oxaprozin, 4,5-diphenyl-2-oxazolepropanoic acid, potassium salt]		370 mg/mL	photosensitive material
O=C([O-])CCc1nc(-c2ccccc2)c(-c2ccccc2)o1.[Na+] [sodium salt of oxaprozin, 4,5-diphenyl-2-oxazolepropanoic acid, sodium salt]		260 mg/mL	
